Source: the supplement of paper PMC4380931

Tests used:
Assay in all cases: relative viability (cell count relative to DMSO-treated control) (fraction of DMSO control); higher = more viable cells / less drug effect
[1] = tested on: MMACSF
Protocol: (§1)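 BRAF V600E/D melanoma cell lines were seeded in 96-well plates, treated in 4 replicates with seven doses (3.16 nM to 3.16 uM) of RAF/MEK inhibitors for 24, 48 or 72 h, and stained with Hoechst 33342 (nuclei) and DEVD-NucView488 caspase-3 substrate. Plates were imaged on an Operetta. Relative viability is the cell count normalised to a DMSO-treated control; apoptosis fraction is the fraction of NucView488-positive nuclei.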

[2] = tested on: RVH421
Protocol: as §1

[3] = tested on: COLO858
Protocol: as §1

CCCS(=O)(=O)Nc1ccc(F)c(C(=O)c2c[nH]c3ncc(-c4ccc(Cl)cc4)cc23)c1F [Vemurafenib]
relative viability
Conditions | 0.00316 µM | 0.01 µM | 0.0316 µM | 0.1 µM | 0.316 µM | 1 µM | 3.16 µM
[1], 24 h | 0.923 | 0.887 | 0.976 | 1 | 0.89 | 0.9218 | 0.905
[1], 48 h | 0.908 | 0.923 | 0.962 | 1 | 0.85 | 0.713 | 0.604
[1], 72 h | 0.957 | 0.941 | 0.939 | 0.697 | 0.56 | 0.29 | 0.0882
[2], 24 h | 0.8497 | 0.936 | 0.993 | 1 | 1.07 | 1.04 | 0.823
[2], 48 h | 1.02 | 0.907 | 0.932 | 0.887 | 0.778 | 0.684 | 0.503
[2], 72 h | 0.957 | 1.02 | 0.959 | 0.909 | 0.674 | 0.539 | 0.452
[3], 24 h | 0.782 | 1.02 | 1.05 | 0.988 | 0.916 | 0.824 | 0.703
[3], 48 h | 0.926 | 1.02 | 1 | 0.933 | 0.574 | 0.362 | 0.215
[3], 72 h | 1.21 | 1.18 | 1.31 | – | – | – | –
